Assay [1] deals with MOLM-13 cells (human acute myeloid leukemia cells). Briefly: MOLM-13 Cellular Assay. As to conditions: 72 hours exposure, cell viability by CellTiter-Glo. In kind it is cell-based. As for the experimental part:
The following assay is referred to herein as the “MOLM-13 Cellular Assay.” MOLM-13 cells (human acute myeloid leukemia cells) were obtained from DSMZ and were maintained in RPMI 1640+Glutamax+25 mM HEPES (Invitrogen, catalog number 72400) supplemented with 10% heat inactivated fetal bovine serum (FBS; Invitrogen, catalog number 16140). The day prior to assay set-up, cells were pelleted, resuspended in fresh media, counted, and cells were plated at 0.4×10^6 cell/mL in a T150 flask. On the day of the assay, cells were pelleted, resuspend in fresh media, counted and seeded at 5,000 cells/well in white opaque 96-well tissue culture treated microplates (Perkin Elmer, catalog number 6005680). Cells were exposed to different concentrations of test compounds at 37° C., 5% CO2 for 72 hours immediately after seeding. Cell viability was acquired on a Perkin Elmer Envision 2104 multilabel reader using the CellTiter-Glo assay (Promega) according to the manufacturer's instructions.
On the technique in general: Cellular ATP, detected with luciferase, serves as a proxy for viable cell number.

For a further assay, the target named is human DHODH (Homo sapiens (Human), UniProt Q02127). Briefly: DHODH Enzymatic Assay. In kind it is biochemical. As to conditions: purified human DHODH, DCIP absorbance, end-point mode; read-out: hDHODH IC50. As for the experimental part: The following assay is referred to herein as the “DHODH Enzymatic Assay.” To detect DHODH enzyme activities, dichloroindophenol (DCIP) is added as the final electron acceptor in the assay. DCIP can accept electrons from the reduced coenzyme Q generated in the assay, or from dihydroorotate (DHO) via FMN by binding presumably to the ubiquinone pocket. DCIP solutions are blue, with an intense absorbance around 600 nm, but becomes colorless upon reduction (J. Biol. Chem. (1986) 261, 11386). The assay buffer contained […], pH 7.5, 150 mM NaCl, 0.5 mM EDTA, and 0.1% Triton X-100 in MilliQ water. Substrate consisting of 20 mM DHO, 5 mM CoQ6, and 1 mM DCIP in assay buffer, initiates the reaction. The assay is run in end-point mode by quenching the reaction with the potent DHODH inhibitor brequinar. Absorbance measurements were obtained using the BMG Phera Star plate-reading spectrophotomer. Purified human DHODH was purchased from Proteros (cat. No. PR-0044). Chemicals were purchased from Sigma-Aldrich, Teknova, and Avanti Polar Lipids. Liquid handling was performed using Labcyte Echo and Formulatrix Tempest.

Our source for the IC50 values is patent US11505536B2, “Dihydroorotate dehydrogenase inhibitors” (Janssen Biotech, Inc., priority 2019, dated 2022).

SMILES strings stand for the structures.

Chain of human DHODH (Q02127 whole entry): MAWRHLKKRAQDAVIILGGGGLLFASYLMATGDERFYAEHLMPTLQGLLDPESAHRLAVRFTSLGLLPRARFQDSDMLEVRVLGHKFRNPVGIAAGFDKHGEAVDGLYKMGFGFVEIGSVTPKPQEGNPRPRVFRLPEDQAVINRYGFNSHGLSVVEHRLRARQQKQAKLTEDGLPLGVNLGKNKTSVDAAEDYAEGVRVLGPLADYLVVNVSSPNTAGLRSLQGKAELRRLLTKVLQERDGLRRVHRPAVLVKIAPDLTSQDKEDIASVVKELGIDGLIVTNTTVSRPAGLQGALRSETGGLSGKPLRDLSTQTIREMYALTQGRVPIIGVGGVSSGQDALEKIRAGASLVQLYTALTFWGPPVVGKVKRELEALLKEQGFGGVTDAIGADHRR

Take `C=C(C)c1cn(-c2ccccc2C(F)(F)F)c(=O)c2ccc(-n3nc(CO)n(CC)c3=O)cc12` [Example 12, 6-(4-Ethyl-3-(hydroxymethyl)-5-oxo-4,5-dihydro-1H-1,2,4-triazol-1-yl)-4-(prop-1-en-2-yl)-2-(2-(trifluoromethyl)phenyl)isoquinolin-1(2H)-one]: the IC50 in assay [1] (Homo sapiens, MOLM-13, 72 h) was 2 nM; at human DHODH, 2.29 nM.

As for `C=C(C)c1cn(-c2ccccc2C#N)c(=O)c2ccc(-n3nc(CO)n(CC)c3=O)cc12` [Example 13, 2-(6-(4-Ethyl-3-(hydroxymethyl)-5-oxo-4,5-dihydro-1H-1,2,4-triazol-1-yl)-1-oxo-4-(prop-1-en-2-yl)isoquinolin-2(1H)-yl)benzonitrile], the IC50 in assay [1] (Homo sapiens, MOLM-13, 72 h) came out at 6 nM; at human DHODH, 5.49 nM.

As for `CCc1nn(-c2ccccc2C)c(=O)c2ccc(-n3nc(CO)n(CC)c3=O)cc12` [Example 21, 4-Ethyl-6-(4-ethyl-3-(hydroxymethyl)-5-oxo-4,5-dihydro-1H-1,2,4-triazol-1-yl)-2-(o-tolyl)phthalazin-1(2H)-one], the IC50 is 10 nM in assay [1] (Homo sapiens, MOLM-13, 72 h) and 31.2 nM on human DHODH.

Take `CCn1c(CO)nn(-c2cc3c(C(C)C)cn(-c4csnc4C)c(=O)c3cc2F)c1=O` [Example 131, 6-(4-Ethyl-3-(hydroxymethyl)-5-oxo-4,5-dihydro-1H-1,2,4-triazol-1-yl)-7-fluoro-4-isopropyl-2-(3-methylisothiazol-4-yl)isoquinolin-1(2H)-one]: the IC50 in assay [1] (Homo sapiens, MOLM-13, 72 h) was 50 nM; at human DHODH, 33.7 nM.

With `CCn1c(CO)nn(-c2cc3c(C(C)C)cn([C@H]4CCC[C@@H](OC)C4)c(=O)c3cc2F)c1=O` (racemic) [Example 127, Racemic 6-(4-Ethyl-3-(hydroxymethyl)-5-oxo-4,5-dihydro-1H-1,2,4-triazol-1-yl)-7-fluoro-4-isopropyl-2-((cis)-3-methoxycyclohexyl)isoquinolin-1(2H)-one], the IC50 in assay [1] (Homo sapiens, MOLM-13, 72 h) was > 100 nM; at human DHODH, 181 nM.

Take `CCn1c(CO)nn(-c2cc3c(C(C)C)cn(-c4ccccc4C(F)(F)F)c(=O)c3cc2F)c1=O` [Example 103, 6-(4-Ethyl-3-(hydroxymethyl)-5-oxo-4,5-dihydro-1H-1,2,4-triazol-1-yl)-7-fluoro-4-isopropyl-2-(2-(trifluoromethyl)phenyl)isoquinolin-1(2H)-one]: the IC50 was 0.3 nM in assay [1] (Homo sapiens, MOLM-13, 72 h) and 0.669 nM at human DHODH.

On to `C=C(C)c1cn(-c2c(C)cnc(OC)c2C)c(=O)c2cc(F)c(-n3nc(CO)n(CC)c3=O)cc12` [Example 71, 6-(4-Ethyl-3-(hydroxymethyl)-5-oxo-4,5-dihydro-1H-1,2,4-triazol-1-yl)-7-fluoro-2-(2-methoxy-3,5-dimethylpyridin-4-yl)-4-(prop-1-en-2-yl)isoquinolin-1(2H)-one], for which the IC50 in assay [1] (Homo sapiens, MOLM-13, 72 h) came to 10 nM; at human DHODH it was 2.02 nM.

For the compound `CCn1c(CO)nn(-c2cc3c(C(C)C)cn(-c4ccncc4C)c(=O)c3cc2F)c1=O` [Example 137, 6-(4-Ethyl-3-(hydroxymethyl)-5-oxo-4,5-dihydro-1H-1,2,4-triazol-1-yl)-7-fluoro-4-isopropyl-2-(3-methylpyridin-4-yl)isoquinolin-1(2H)-one], the IC50 in assay [1] (Homo sapiens, MOLM-13, 72 h) was determined as 8 nM; on human DHODH, 8.08 nM.

Consider `C=C(C)c1cn(-c2c(Cl)cccc2Cl)c(=O)c2ccc(-n3nc(CO)n(CC)c3=O)cc12` [Example 8, 2-(2,6-Dichlorophenyl)-6-(4-ethyl-3-(hydroxymethyl)-5-oxo-4,5-dihydro-1H-1,2,4-triazol-1-yl)-4-(prop-1-en-2-yl)isoquinolin-1(2H)-one], for which the IC50 stood at 0.7 nM in assay [1] (Homo sapiens, MOLM-13, 72 h) and 0.839 nM on human DHODH.

For `CCn1c(CO)nn(-c2cc3c(C(C)C)cn(C(COC)COC)c(=O)c3cc2F)c1=O` [Example 112, 2-(1,3-Dimethoxypropan-2-yl)-6-(4-ethyl-3-(hydroxymethyl)-5-oxo-4,5-dihydro-1H-1,2,4-triazol-1-yl)-7-fluoro-4-isopropylisoquinolin-1(2H)-one], the IC50 turned out to be 30 nM in assay [1] (Homo sapiens, MOLM-13, 72 h) and 35.3 nM on human DHODH.

In the case of `CCn1c(CO)nn(-c2nc3c(C(C)C)cn(-c4ccccc4C(F)F)c(=O)c3cc2F)c1=O` [Example 140], the IC50 was found to be 1 nM in assay [1] (Homo sapiens, MOLM-13, 72 h) and 1.13 nM on human DHODH.

Consider `CCn1c(CO)nn(-c2cc3c(C(C)C)cn([C@@H]4CCC[C@@H]4C)c(=O)c3cc2F)c1=O` (stereo in doubt) [Example 125, 6-(4-Ethyl-3-(hydroxymethyl)-5-oxo-4,5-dihydro-1H-1,2,4-triazol-1-yl)-7-fluoro-4-isopropyl-2((1R*,2S*)-2-methylcyclopentyl)isoquinolin-1(2H)-one], for which the IC50 in assay [1] (Homo sapiens, MOLM-13, 72 h) was determined as 6 nM; at human DHODH, 15.5 nM.

With `CCn1c(CO)nn(-c2cc3c([C@H](C)C(F)(F)F)nn(-c4ccccc4C)c(=O)c3cc2F)c1=O` (single isomer, unassigned) [Example 56, (S*)-6-(4-Ethyl-3-(hydroxymethyl)-5-oxo-4,5-dihydro-1H-1,2,4-triazol-1-yl)-7-fluoro-2-(o-tolyl)-4-(1,1,1-trifluoropropan-2-yl)phthalazin-1(2H)-one], the IC50 in assay [1] (Homo sapiens, MOLM-13, 72 h) was 2 nM; on human DHODH, 2.31 nM.

`C=C(C)c1cn(-c2ccc(F)cc2C)c(=O)c2cc(F)c(-n3nc(CO)n(CC)c3=O)cc12` [Example 76, 6-(4-Ethyl-3-(hydroxymethyl)-5-oxo-4,5-dihydro-1H-1,2,4-triazol-1-yl)-7-fluoro-2-(4-fluoro-2-methylphenyl)-4-(prop-1-en-2-yl)isoquinolin-1(2H)-one]: the IC50 in assay [1] (Homo sapiens, MOLM-13, 72 h) worked out at 4 nM; at human DHODH, 1.5 nM.

As to `CCn1c(CO)nn(-c2cc3c(C(C)C)cn(-c4nccc(OC)c4Cl)c(=O)c3cc2F)c1=O` [Example 110, 2-(3-Chloro-4-methoxypyridin-2-yl)-6-(4-ethyl-3-(hydroxymethyl)-5-oxo-4,5-dihydro-1H-1,2,4-triazol-1-yl)-7-fluoro-4-isopropylisoquinolin-1(2H)-one], the IC50 was found to be 20 nM in assay [1] (Homo sapiens, MOLM-13, 72 h) and 10.4 nM at human DHODH.

For the compound `CCn1c(CO)nn(-c2cc3c(C(C)C)cn(-c4ccccc4C(F)F)c(=O)c3cc2F)c1=O` [Example 105, 2-(2-(Difluoromethyl)phenyl)-6-(4-ethyl-3-(hydroxymethyl)-5-oxo-4,5-dihydro-1H-1,2,4-triazol-1-yl)-7-fluoro-4-isopropylisoquinolin-1(2H)-one], the IC50 in assay [1] was 0.2 nM; in assay [1] (Homo sapiens, MOLM-13, 72 h) it was ≤ 0.2 nM; at human DHODH it was 0.528 nM.

As for `CCn1c(CO)nn(-c2ccc3c(=O)n(-c4ccccc4Cl)nc(C(C)C)c3c2)c1=O` [Example 17, 2-(2-Chlorophenyl)-6-(4-ethyl-3-(hydroxymethyl)-5-oxo-4,5-dihydro-1H-1,2,4-triazol-1-yl)-4-isopropylphthalazin-1(2H)-one], the IC50 in assay [1] (Homo sapiens, MOLM-13, 72 h) was found to be 3 nM; on human DHODH, 3.21 nM.

`CCn1c(CO)nn(-c2cc3c(C(C)C)cn(-c4scnc4C)c(=O)c3cc2F)c1=O` [Example 39, 6-(4-Ethyl-3-(hydroxymethyl)-5-oxo-4,5-dihydro-1H-1,2,4-triazol-1-yl)-7-fluoro-4-isopropyl-2-(4-methylthiazol-5-yl)isoquinolin-1(2H)-one]: the IC50 in assay [1] (Homo sapiens, MOLM-13, 72 h) amounted to 40 nM; at human DHODH, 13 nM.

Take `CCn1c(CO)nn(-c2cc3c(C(C)C)cn(-c4c(F)ccc(OC)c4Cl)c(=O)c3cc2F)c1=O` [Example 80, 2-(2-Chloro-6-fluoro-3-methoxyphenyl)-6-(4-ethyl-3-(hydroxymethyl)-5-oxo-4,5-dihydro-1H-1,2,4-triazol-1-yl)-7-fluoro-4-isopropylisoquinolin-1(2H)-one]: the IC50 in assay [1] (Homo sapiens, MOLM-13, 72 h) came to 0.3 nM; at human DHODH, 0.273 nM.

Take `CCn1c(CO)nn(-c2cc3c(C(C)C)cn(-c4ccccc4F)c(=O)c3cc2F)c1=O` [Example 77, 6-(4-Ethyl-3-(hydroxymethyl)-5-oxo-4,5-dihydro-1H-1,2,4-triazol-1-yl)-7-fluoro-2-(2-fluorophenyl)-4-isopropylisoquinolin-1(2H)-one]: the IC50 is 3 nM in assay [1] (Homo sapiens, MOLM-13, 72 h) and 1.86 nM at human DHODH.

Consider `C=C(C)c1cn(-c2cc(C)ccc2F)c(=O)c2cc(F)c(-n3nc(CO)n(CC)c3=O)cc12` [Example 42, 6-(4-Ethyl-3-(hydroxymethyl)-5-oxo-4,5-dihydro-1H-1,2,4-triazol-1-yl)-7-fluoro-2-(2-fluoro-5-methylphenyl)-4-(prop-1-en-2-yl)isoquinolin-1(2H)-one], for which the IC50 in assay [1] (Homo sapiens, MOLM-13, 72 h) amounted to 0.9 nM; on human DHODH, 1.69 nM.

A word on the IC50: it is the point on the concentration scale where inhibition reaches its midpoint.
